Assays:
[1] = system: CHEAL (Chenopodium album); assay: Postemergence herbicidal evaluation; format: in vivo, L.; details: postemergence
Method in brief: (§1)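 Seedlings grown about two weeks in flats, sprayed, then kept under standard greenhouse care. Rated visually 4–5 weeks after treatment on a 0–9 scale (stand, vigour, malformation, size, chlorosis, overall appearance) relative to untreated control; repeat tests averaged.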

[2] = system: CASOB (Cassia obtusifolia); assay: Postemergence herbicidal evaluation; format: in vivo, L.; details: postemergence
Method in brief: as §1

[3] = system: AMBEL (Ambrosia artemisifolia); assay: Postemergence herbicidal evaluation; format: in vivo, L.; details: postemergence
Method in brief: as §1

[4] = system: ECHCG (Echinochloa crus-galli); assay: Postemergence herbicidal evaluation; format: in vivo, (L.) Beau; details: postemergence
Method in brief: as §1

[5] = system: GLXMAW (Soybean, Williams); assay: Preemergence herbicidal evaluation; format: in vivo, Glycine max, (L.) Merr. cv Williams; details: rated 4-5 weeks after treatment
[6] = system: ORYSAT (Rice, Tebonnet); assay: Preemergence herbicidal evaluation; format: in vivo, Oryza sativa, (L.) Tebonnet; details: rated 4-5 weeks after treatment
[7] = system: CYPIR (Cyperus iria); assay: Flooded paddy, preemergence weed control; format: in vivo; details: rated 3-4 weeks after treatment, 0-9 rating scale
Method in brief: (§2)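 Under paddy conditions, seeds or vegetative propagules go into the top 0.5 cm of silt loam; the soil is then flooded to 1.5–3 cm and kept so. Treated pots stay in a greenhouse; response is rated 0-9 visually versus control.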

[8] = system: ECHORC (Echinochloa oryzoides); assay: Flooded paddy, preemergence weed control; format: in vivo, Echinochloa oryzoides (Ard.) Fritsch.; details: rated 3-4 weeks after treatment, 0-9 rating scale
Method in brief: as §2

[9] = system: IPOHE (Ipomoea hederacea); assay: Preemergence herbicidal evaluation; format: in vivo, (L.) Jacq.; details: rated 4-5 weeks after treatment
[10] = system: ORYSAT (Rice, Tebonnet); assay: Postemergence herbicidal evaluation; format: in vivo, Oryza sativa, (L.) Tebonnet; details: postemergence
Method in brief: as §1

[11] = system: TRZAWR (Wheat, Winter, cv Riband); assay: Preemergence herbicidal evaluation; format: in vivo, Triticum aestivum; details: rated 4-5 weeks after treatment
Method in brief: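 Visual 0–9 rating versus control (stand, vigor, malformation, size, chlorosis, overall appearance), scored four to five weeks post-treatment. Preemergence spray of aqueous acetone solution onto freshly seeded soil cups; plants grown under conventional greenhouse care.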

[12] = system: ZEAMX (Corn, Field); assay: Postemergence herbicidal evaluation; format: in vivo, Zea mays, L.; details: postemergence
Method in brief: as §1

[13] = system: SAGPY (Sagittaria pygmaea); assay: Flooded paddy, preemergence weed control; format: in vivo, L.; details: rated 3-4 weeks after treatment, 0-9 rating scale
Method in brief: as §2

| Compound | CHEAL herbicidal rating ([1]; rate 0.0320 kg/ha) | CHEAL herbicidal rating ([1]; rate 0.0620 kg/ha) | CASOB herbicidal rating ([2]; rate 0.0320 kg/ha) | CASOB herbicidal rating ([2]; rate 0.0620 kg/ha) | AMBEL herbicidal rating ([3]; rate 0.0320 kg/ha) | AMBEL herbicidal rating ([3]; rate 0.0620 kg/ha) | ECHCG herbicidal rating ([4]; rate 0.0320 kg/ha) | ECHCG herbicidal rating ([4]; rate 0.0620 kg/ha) | Preemergence herbicidal rating GLXMAW ([5]; Rate 0.0620 kg/ha) | Preemergence herbicidal rating GLXMAW ([5]; Rate 0.1250 kg/ha) | Preemergence herbicidal rating GLXMAW ([5]; Rate 0.2500 kg/ha) | Preemergence herbicidal rating ORYSAT ([6]; Rate 0.0620 kg/ha) | Preemergence herbicidal rating ORYSAT ([6]; Rate 0.1250 kg/ha) | Preemergence herbicidal rating ORYSAT ([6]; Rate 0.2500 kg/ha) | herbicidal rating, CYPIR ([7]; rate 0.0080 kg/ha) | herbicidal rating, CYPIR ([7]; rate 0.0320 kg/ha) | herbicidal rating, CYPIR ([7]; rate 0.1250 kg/ha) | herbicidal rating, ECHORC ([8]; rate 0.0080 kg/ha) | herbicidal rating, ECHORC ([8]; rate 0.0320 kg/ha) | herbicidal rating, ECHORC ([8]; rate 0.1250 kg/ha) | further results |
| --- | --- | --- | --- | --- | --- | --- | --- | --- | --- | --- | --- | --- | --- | --- | --- | --- | --- | --- | --- | --- | --- |
| Cn1c(C(F)(F)F)cc(=O)n(-c2ccc3snc(C4OCC(CCl)O4)c3c2)c1=O (stereo not drawn) [Compound 72, 3-[3-[4-(chloromethyl)-1,3-dioxolan-2-yl]-1,2-benzisothiazol-5-yl]-1-methyl-6-(trifluoromethyl)uracil] | 9.0 | 9.0 | 5.0 | 5.0 | 9.0 | 9.0 | 3.0 | 3.0 | 6.5 | 9.0 | 9.0 | 8.5 | 8.5 | 9.0 | 0.0 | 3.0 | 9.0 | 5.0 | 9.0 | 9.0 | Preemergence herbicidal rating IPOHE ([9]; Rate 0.0620 kg/ha): 3.5; Preemergence herbicidal rating IPOHE ([9]; Rate 0.1250 kg/ha): 6.5; Preemergence herbicidal rating IPOHE ([9]; Rate 0.2500 kg/ha): 8.0; ORYSAT herbicidal rating ([10]; rate 0.0320 kg/ha): 4.0; ORYSAT herbicidal rating ([10]; rate 0.0620 kg/ha): 4.5; Preemergence herbicidal rating TRZAWR ([11]; Rate 0.0620 kg/ha): 7.0; Preemergence herbicidal rating TRZAWR ([11]; Rate 0.1250 kg/ha): 9.0; Preemergence herbicidal rating TRZAWR ([11]; Rate 0.2500 kg/ha): 9.0; ZEAMX herbicidal rating ([12]; rate 0.0320 kg/ha): 5.0; ZEAMX herbicidal rating ([12]; rate 0.0620 kg/ha): 5.0; herbicidal rating, SAGPY ([13]; rate 0.0080 kg/ha): 0.0; herbicidal rating, SAGPY ([13]; rate 0.0320 kg/ha): 0.0; herbicidal rating, SAGPY ([13]; rate 0.1250 kg/ha): 8.0 |
| Cn1c(C(F)(F)F)cc(=O)n(-c2ccc3snc(C4OCC(CO)O4)c3c2)c1=O (stereo not drawn) [Compound 73, 3-[3-[4-(hydroxymethyl)-1,3-dioxolan-2-yl]-1,2-benzisothiazol-5-yl]-1-methyl-6-(trifluoromethyl)uracil] | 9.0 | 9.0 | 3.0 | 4.0 | 9.0 | 9.0 | 2.0 | 3.0 | 4.0 | 7.0 | 8.0 | 6.0 | 7.0 | 8.0 | 0.0 | 0.0 | 9.0 | 0.0 | 0.0 | 7.0 | Preemergence herbicidal rating IPOHE ([9]; Rate 0.0620 kg/ha): 7.0; Preemergence herbicidal rating IPOHE ([9]; Rate 0.1250 kg/ha): 9.0; Preemergence herbicidal rating IPOHE ([9]; Rate 0.2500 kg/ha): 9.0; ORYSAT herbicidal rating ([10]; rate 0.0320 kg/ha): 3.0; ORYSAT herbicidal rating ([10]; rate 0.0620 kg/ha): 4.0; Preemergence herbicidal rating TRZAWR ([11]; Rate 0.0620 kg/ha): 4.0; Preemergence herbicidal rating TRZAWR ([11]; Rate 0.1250 kg/ha): 6.0; Preemergence herbicidal rating TRZAWR ([11]; Rate 0.2500 kg/ha): 8.0; ZEAMX herbicidal rating ([12]; rate 0.0320 kg/ha): 4.5; ZEAMX herbicidal rating ([12]; rate 0.0620 kg/ha): 5.0; herbicidal rating, SAGPY ([13]; rate 0.0080 kg/ha): 0.0; herbicidal rating, SAGPY ([13]; rate 0.0320 kg/ha): 0.0; herbicidal rating, SAGPY ([13]; rate 0.1250 kg/ha): 3.0 |
| CC(C)C1COC(c2nsc3ccc(-n4c(=O)cc(C(F)(F)F)n(C)c4=O)cc23)=N1 (stereo not drawn) [Compound 74, 3-[3-(4-isopropyl-2-oxazolin-2-yl)-1,2-benzisothiazol-5-yl]-1-methyl-6-(trifluoromethyl)uracil] | 9.0 | 9.0 | 2.0 | 1.0 | 9.0 | 9.0 | 2.0 | 2.0 | 1.0 | 1.0 | 9.0 | 1.0 | 1.0 | 5.0 | 0.0 | 6.0 | 9.0 | 5.5 | 8.0 | 9.0 | Preemergence herbicidal rating IPOHE ([9]; Rate 0.0620 kg/ha): 0.0; Preemergence herbicidal rating IPOHE ([9]; Rate 0.1250 kg/ha): 0.0; Preemergence herbicidal rating IPOHE ([9]; Rate 0.2500 kg/ha): 8.0; ORYSAT herbicidal rating ([10]; rate 0.0320 kg/ha): 3.5; ORYSAT herbicidal rating ([10]; rate 0.0620 kg/ha): 4.0; Preemergence herbicidal rating TRZAWR ([11]; Rate 0.0620 kg/ha): 1.0; Preemergence herbicidal rating TRZAWR ([11]; Rate 0.1250 kg/ha): 2.0; Preemergence herbicidal rating TRZAWR ([11]; Rate 0.2500 kg/ha): 5.0; ZEAMX herbicidal rating ([12]; rate 0.0320 kg/ha): 5.0; ZEAMX herbicidal rating ([12]; rate 0.0620 kg/ha): 5.0; herbicidal rating, SAGPY ([13]; rate 0.0080 kg/ha): 0.0; herbicidal rating, SAGPY ([13]; rate 0.0320 kg/ha): 1.5; herbicidal rating, SAGPY ([13]; rate 0.1250 kg/ha): 7.0 |
| Cn1c(C(F)(F)F)cc(=O)n(-c2ccc3snc(C4=NCCO4)c3c2)c1=O [Compound 75, 1-methyl-3-[3(2-oxazolin-2-yl)-1,2-benzisothiazol-5-yl]-6-(trifluoromethyl)uracil] | 7.0 | 7.0 | 2.0 | 2.0 | 9.0 | 9.0 | 3.0 | 3.0 | 0.0 | 1.0 | 4.0 | 0.0 | 2.0 | 7.0 | 0.0 | 7.0 | 9.0 | 1.5 | 4.0 | 8.5 | Preemergence herbicidal rating IPOHE ([9]; Rate 0.0620 kg/ha): 0.0; Preemergence herbicidal rating IPOHE ([9]; Rate 0.1250 kg/ha): 4.0; Preemergence herbicidal rating IPOHE ([9]; Rate 0.2500 kg/ha): 7.0; ORYSAT herbicidal rating ([10]; rate 0.0320 kg/ha): 2.5; ORYSAT herbicidal rating ([10]; rate 0.0620 kg/ha): 3.5; Preemergence herbicidal rating TRZAWR ([11]; Rate 0.0620 kg/ha): 0.0; Preemergence herbicidal rating TRZAWR ([11]; Rate 0.1250 kg/ha): 2.0; Preemergence herbicidal rating TRZAWR ([11]; Rate 0.2500 kg/ha): 7.0; ZEAMX herbicidal rating ([12]; rate 0.0320 kg/ha): 4.5; ZEAMX herbicidal rating ([12]; rate 0.0620 kg/ha): 5.0; herbicidal rating, SAGPY ([13]; rate 0.0080 kg/ha): 0.0; herbicidal rating, SAGPY ([13]; rate 0.0320 kg/ha): 4.5; herbicidal rating, SAGPY ([13]; rate 0.1250 kg/ha): 9.0 |

Source: patent US6706663B2, “Herbicidal 3-heterocyclic substituted benzisothiazole and benzisoxazole compounds” (Wyeth, priority 2000, dated 2004)
